Values quoted from earlier work as cited in patent US12472172B2, “Lomitapide for use in methods of treating hyperlipidemia and hypercholesterolemia in pediatric patients” (Amryt Pharmaceuticals Inc., priority 2020, dated 2025).

Conditions: adult

previously used fixed Qgut input: 17.9 L/h
SMILES: O=C(NC1CCN(CCCCC2(C(=O)NCC(F)(F)F)c3ccccc3-c3ccccc32)CC1)c1ccccc1-c1ccc(C(F)(F)F)cc1 [lomitapide, N-(2,2,2-trifluoroethyl)-9-[4-[4-[[[4′(trifluoromethyl)[1,1′-biphenyl]-2-yl]carbonyl]amino]-1-piperidinyl]butyl]-9H-fluorene-9-carboxamide]
